Assay [1] has as its target T1, µ-opioid receptor (MOR), rat (Rattus norvegicus, UniProt P33535).
T1 construct: gene Oprm1; native receptor in rat brain membrane homogenate or rat vas deferens
Format: binding. Particulars: read-out: Ki ± S.E.M. (nM) / [^3H]DAMGO (μ) ^1.

Assay [2] deals with T1, µ-opioid receptor (MOR), rat. Nature of the assay: […]GTPγS binding, rat brain membranes. Particulars: read-out: EC50 ± S.E.M.; agonist; pH 7.4, 30 °C, 60 min, 30 µM GDP; mixed opioid receptors in tissue, assigned to MOR by the authors. Format: biochemical. (In general: Binding of GTPγS marks nucleotide exchange on a G protein.)
For the next assay, the target named is T2, MOR, mouse vas deferens (Mus musculus, UniProt P42866).
T2 construct: gene Oprm1; native receptor in isolated mouse vas deferens
Particulars: read-out: EC50 ± S.E.M. (nM) / MVD.

The target of assay [3] is T3, κ-opioid receptor (KOR), guinea pig (Cavia porcellus, UniProt P41144).
T3 construct: gene OPRK1; native receptor in guinea pig brain membrane homogenate
Nature of the assay: [3H]U-69593 competition, guinea pig brain membranes. Type of assay: binding. Particulars: 50 mM Tris-HCl pH 7.4, 30 °C, 30 min; unreliable (partial displacement). An excerpt:
[3H]U-69593 competition, guinea pig brain membranes on κ-opioid receptor (KOR), guinea pig

In assay [4] the target is T4, δ-opioid receptor (DOR), rat (Rattus norvegicus, UniProt P33533).
T4 construct: gene Oprd1; native receptor in rat brain membrane homogenate
Nature of the assay: [3H]Ile5,6-deltorphin II competition, rat brain membranes. Format: binding. Particulars: read-out: Ki ± S.E.M. (nM) / [^3H]IleDelt II (δ) ^1; 50 mM Tris-HCl pH 7.4, 35 °C, 45 min; Cheng-Prusoff.

The target of assay [5] is T4, δ-opioid receptor (DOR), rat. The assay is described as above. Format: binding. Particulars: 50 mM Tris-HCl pH 7.4, 35 °C, 45 min; unreliable (incomplete displacement).
For assay [6] the target is unchanged. Nature of the assay: […]GTPγS binding, rat brain membranes. Format: biochemical. Particulars: agonist; pH 7.4, 30 °C, 60 min, 30 µM GDP.

Read-outs that look alike come from different tables or passages of the source.

For `COc1ccc2c3c1O[C@H]1[C@@H](OS(=O)(=O)O)C=C[C@@]4(OC)[C@@H](C2)N(C)CC[C@]314` [14-methoxycodeine-6-O-sulfate], the Ki was 3.37 ± 0.48 nM in assay [1] and 346 ± 133 nM in assay [4]. In addition, the EC50 amounted to 301 ± 197 nM in assay [2] and 239 ± 6.15 nM at MOR, mouse vas deferens. Moreover, the “Ki ± S.E.M. (nM) / [^3H]U-69593 (κ) ^2” value in assay [3] was determined as 245.57 ± 215.01 nM.
As for `COc1ccc2c3c1O[C@H]1[C@@H](OS(=O)(=O)O)C=C[C@H]4[C@@H](C2)N(C)CC[C@@]341` [codeine-6-O-sulfate], the Ki in assay [1] (50 mM Tris-HCl pH 7.4, 35 °C, 45 min, Cheng-Prusoff) was found to be 96.9 ± 20.3 nM. Also, at MOR, mouse vas deferens (agonist, Mg2+-free Krebs, 31 °C, MOR assigned by naloxone Ke), the EC50 was above 1000 nM. The “Ki ± S.E.M. (nM) / [^3H]IleDelt II (δ) ^1” value in assay [5] was found to be 968.28 ± 471.38 nM.
`CC(C)[C@H](NC(=O)[C@H](CCC(=O)O)NC(=O)[C@H](Cc1ccccc1)NC(=O)[C@@H](C)NC(=O)[C@@H](N)Cc1ccc(O)cc1)C(=O)N[C@H](C(=O)NCC(N)=O)C(C)C` [deltorphin II] yielded an EC50 in assay [6] of 44.4 ± 23.5 nM.
